Experimental data published in the NIST ThermoML archive (doi:10.1016/j.fluid.2012.11.013).

Settings: Liquid, Vibrating tube method

CCCC(C)C [2-methylpentane]
mass density [kg/m3]
Settings | 283.15 K | 288.15 K | 293.15 K | 298.15 K | 303.15 K | 308.15 K | 313.15 K | 318.15 K | 323.15 K | 328.15 K
100 kPa | 662.38 | 657.8 | 653.28 | 648.63 | 643.96 | 639.25 | 634.49 | 629.65 | 624.76 | 619.82
2000 kPa | 664.49 | 659.95 | 655.38 | 651 | 646.27 | 641.65 | 637.11 | 632.32 | 627.48 | 622.75
5000 kPa | 667.45 | 663.16 | 658.76 | 654.32 | 649.83 | 645.36 | 640.96 | 636.32 | 631.78 | 627.22
7000 kPa | 669.44 | 665.17 | 660.81 | 656.61 | 652.12 | 647.77 | 643.31 | 638.86 | 634.39 | 629.87
10000 kPa | 672.23 | 668.05 | 663.8 | 659.71 | 655.36 | 651.1 | 646.93 | 642.49 | 638.24 | 633.86
20000 kPa | 680.99 | 677.13 | 673.11 | 669.38 | 665.3 | 661.38 | 657.45 | 653.46 | 649.56 | 645.47
30000 kPa | 689.02 | 685.21 | 681.56 | 677.93 | 673.98 | 670.38 | 666.76 | 663.07 | 659.4 | 655.55
40000 kPa | 696.18 | 692.59 | 689.05 | 685.62 | 682.03 | 678.4 | 675.03 | 671.49 | 667.99 | 664.47
50000 kPa | 702.82 | 699.4 | 695.95 | 692.66 | 689.27 | 685.81 | 682.68 | 679.17 | 675.91 | 672.49
60000 kPa | 708.98 | 705.61 | 702.39 | 699.21 | 695.84 | 692.62 | 689.53 | 686.27 | 683.16 | 679.93
65000 kPa | 711.97 | 708.71 | 705.49 | 702.34 | 699.14 | 695.97 | 692.86 | 689.7 | 686.56 | 683.41

CC(C)C(C)C [2,3-dimethylbutane]
mass density [kg/m3]
Settings | 283.15 K | 288.15 K | 293.15 K | 298.15 K | 303.15 K | 308.15 K | 313.15 K | 318.15 K | 323.15 K | 328.15 K
100 kPa | 670.76 | 666.22 | 661.58 | 657 | 652.31 | 647.61 | 642.78 | 638.08 | 633.18 | 628.26
2000 kPa | 672.72 | 668.35 | 663.76 | 659.21 | 654.73 | 650.13 | 645.28 | 640.8 | 636.04 | 631.14
5000 kPa | 675.8 | 671.5 | 667.04 | 662.62 | 658.23 | 653.82 | 649.18 | 644.77 | 640.11 | 635.61
7000 kPa | 677.77 | 673.5 | 669.15 | 664.81 | 660.39 | 656.12 | 651.62 | 647.3 | 642.73 | 638.3
10000 kPa | 680.57 | 676.37 | 672.12 | 667.97 | 663.63 | 659.42 | 655.04 | 650.89 | 646.47 | 642.27
20000 kPa | 689.26 | 685.39 | 681.36 | 677.49 | 673.54 | 669.63 | 665.61 | 661.8 | 657.61 | 653.85
30000 kPa | 697.12 | 693.43 | 689.64 | 686.05 | 682.15 | 678.59 | 674.74 | 671.23 | 667.06 | 663.86
40000 kPa | 704.27 | 700.77 | 697.12 | 693.73 | 690.01 | 686.72 | 683.04 | 679.58 | 676.08 | 672.8
50000 kPa | 710.91 | 707.56 | 704.07 | 700.78 | 697.16 | 694.02 | 690.56 | 687.47 | 684.13 | 680.68
60000 kPa | 717.08 | 713.85 | 710.4 | 707.39 | 703.95 | 700.83 | 697.4 | 694.5 | 691.19 | 688.05
65000 kPa | 720.09 | 716.77 | 713.55 | 710.52 | 707.12 | 704.06 | 700.79 | 697.71 | 694.58 | 691.47

CCC(C)CC [3-methylpentane]
mass density [kg/m3]
Settings | 283.15 K | 288.15 K | 293.15 K | 298.15 K | 303.15 K | 308.15 K | 313.15 K | 318.15 K | 323.15 K | 328.15 K
100 kPa | 673.34 | 668.91 | 664.28 | 659.73 | 655.07 | 650.44 | 645.7 | 640.93 | 636.14 | 631.22
2000 kPa | 675.33 | 670.93 | 666.4 | 661.91 | 657.33 | 652.85 | 648.1 | 643.46 | 638.83 | 634.03
5000 kPa | 678.2 | 673.95 | 669.49 | 665.13 | 660.71 | 656.28 | 651.77 | 647.27 | 642.73 | 638.2
7000 kPa | 680.08 | 675.9 | 671.54 | 667.22 | 662.86 | 658.61 | 654.13 | 649.71 | 645.26 | 640.84
10000 kPa | 682.8 | 678.66 | 674.41 | 670.25 | 666 | 661.77 | 657.53 | 653.27 | 648.88 | 644.64
20000 kPa | 691.21 | 687.28 | 683.39 | 679.53 | 675.49 | 671.68 | 667.66 | 663.74 | 659.72 | 655.85
30000 kPa | 698.81 | 695.19 | 691.45 | 687.73 | 683.96 | 680.42 | 676.56 | 672.89 | 669.28 | 665.6
40000 kPa | 705.94 | 702.32 | 698.72 | 695.4 | 691.63 | 688.33 | 684.59 | 681.17 | 677.73 | 674.39
50000 kPa | 712.39 | 708.77 | 705.44 | 702.25 | 698.64 | 695.51 | 692.01 | 688.56 | 685.39 | 682.22
60000 kPa | 718.5 | 715.04 | 711.72 | 708.63 | 705.24 | 702.1 | 698.74 | 695.68 | 692.42 | 689.42
65000 kPa | 721.33 | 718.14 | 714.81 | 711.62 | 708.41 | 705.28 | 702.04 | 699.05 | 695.87 | 692.79

CCC(C)(C)C [2,2-dimethylbutane]
mass density [kg/m3]
Settings | 283.15 K | 288.15 K | 293.15 K | 298.15 K | 303.15 K | 308.15 K | 313.15 K | 318.15 K | 323.15 K | 328.15 K
100 kPa | 658.57 | 653.96 | 649.25 | 644.46 | 639.75 | 634.86 | 630.04 | 625.06 | 620.03 | –
2000 kPa | 660.76 | 656.25 | 651.6 | 646.95 | 642.26 | 637.48 | 632.76 | 627.98 | 623.17 | 618.2
5000 kPa | 664.07 | 659.62 | 655.12 | 650.7 | 646.07 | 641.54 | 637.06 | 632.33 | 627.74 | 623.02
7000 kPa | 666.19 | 661.74 | 657.45 | 653.04 | 648.58 | 644.04 | 639.66 | 635.14 | 630.61 | 626.02
10000 kPa | 669.19 | 664.88 | 660.66 | 656.38 | 652.04 | 647.69 | 643.44 | 639.02 | 634.54 | 630.26
20000 kPa | 678.5 | 674.51 | 670.51 | 666.62 | 662.53 | 658.58 | 654.67 | 650.69 | 646.65 | 642.58
30000 kPa | 686.83 | 683.05 | 679.25 | 675.66 | 671.8 | 668.08 | 664.53 | 660.78 | 656.94 | 653.14
40000 kPa | 694.31 | 690.77 | 687.12 | 683.71 | 680.03 | 676.55 | 673.1 | 669.72 | 666.02 | 662.51
50000 kPa | 701.27 | 697.81 | 694.34 | 691.09 | 687.56 | 684.38 | 680.94 | 677.73 | 674.2 | 670.88
60000 kPa | 707.71 | 704.32 | 701.07 | 697.88 | 694.57 | 691.41 | 688.22 | 685.05 | 681.7 | 678.64
65000 kPa | 710.76 | 707.61 | 704.25 | 701.14 | 697.92 | 695.23 | 691.61 | 688.58 | 685.35 | 682.59
